Measured values as given in patent US20030176314A1, “Compounds for the treatment of pain” (priority 2001, published 2003).

Biological target: T1, human α2B adrenergic receptor (Homo sapiens, UniProt P18089)
T1 construct: host or cells: LM(tk-) cells, line L-NGC-α2B
T1 sequence (P18089 1-450): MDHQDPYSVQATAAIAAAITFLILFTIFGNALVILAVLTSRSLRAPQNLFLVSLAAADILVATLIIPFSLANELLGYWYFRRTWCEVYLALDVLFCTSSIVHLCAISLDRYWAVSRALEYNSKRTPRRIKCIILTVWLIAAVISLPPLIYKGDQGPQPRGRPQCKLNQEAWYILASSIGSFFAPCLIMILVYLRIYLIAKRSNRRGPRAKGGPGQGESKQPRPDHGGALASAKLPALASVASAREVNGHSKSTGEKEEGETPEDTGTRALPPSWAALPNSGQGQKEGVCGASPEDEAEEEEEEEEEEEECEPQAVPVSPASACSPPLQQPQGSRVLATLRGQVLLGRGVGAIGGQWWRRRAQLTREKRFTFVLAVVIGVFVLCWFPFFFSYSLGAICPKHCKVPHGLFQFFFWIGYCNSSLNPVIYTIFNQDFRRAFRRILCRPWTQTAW
Assay: Binding at human α2B adrenergic receptor
Settings: Table 8; read-out: hα2B Ki
Text: (§1) α2 Human Adrenergic Receptors: To determine the binding of compounds to human α2 receptors, LM(tk−) cell lines stably transfected with the genes encoding the α2A, α2B, and α2C receptors were used. The cell line expressing the α2A receptor is designated L-α2A, and was deposited on Nov. 6, 1992, under ATCC Accession No. CRL 11180. The cell line expressing the α2B receptor is designated L-NGC-α2B, and was deposited on Oct. 25, 1989, under ATCC Accession No. CRL 10275. The cell line expressing the α2C receptor is designated L-α2C, and was deposited on Nov. 6, 1992, under ATCC Accession No. CRL-11181. Cell lysates were prepared as described herin, and suspended in 25 mM glycyiglycine buffer (pH 7.6 at room temperature). Equilibrium competition binding assay were performed using […] (0.5 nM), and nonspecific binding was determined by incubation with 10 μM phentolamine. The bound radioligand was separated by filtration through GF/B filters using a cell harvester.
(§2) The binding affinity (Ki) of these compounds were tested according to the protocols described herein at the following receptors; human α1A, α1B, α1D, α2A, α2B, and α2C adrenergic receptors; human Y1, Y2, Y4, and Y5 receptors; and N-Methyl-D-aspartic acid (NMDA) receptor channels. The binding interactions of these compounds were additionally tested at the norepinephrine (NE) transporter (NE uptake) and serotonin (5-hydroxytryptamine (5HT)) transporter (5HT uptake) according to protocols described herein

Structure (SMILES) | Ki [µM]
CCc1ccc2nc(NC(=N)N)cc(C)c2c1 [Compound 4002A, N-(6-ethyl-4-methyl-2-quinolinyl)guanidine] | 10.4

Biological target: T2, serotonin (5HT) transporter (Rattus norvegicus, UniProt P31652)
T2 construct: evaluated at native, tissue-derived transporters; from tissue
Assay: Binding at native serotonin transporter (5HT uptake)
Settings: Table 8
Experimental: (§3) Transporters: The binding properties of compounds were evaluated at native, tissue-derived transporters, namely serotonin (5HT) transporter and norepinephrine (NE) transporter, according to protocols described in Owens (1997), the disclosure of which is hereby incorporated by reference in its entirety into this application.
as §2

T2 sequence (P31652 whole entry): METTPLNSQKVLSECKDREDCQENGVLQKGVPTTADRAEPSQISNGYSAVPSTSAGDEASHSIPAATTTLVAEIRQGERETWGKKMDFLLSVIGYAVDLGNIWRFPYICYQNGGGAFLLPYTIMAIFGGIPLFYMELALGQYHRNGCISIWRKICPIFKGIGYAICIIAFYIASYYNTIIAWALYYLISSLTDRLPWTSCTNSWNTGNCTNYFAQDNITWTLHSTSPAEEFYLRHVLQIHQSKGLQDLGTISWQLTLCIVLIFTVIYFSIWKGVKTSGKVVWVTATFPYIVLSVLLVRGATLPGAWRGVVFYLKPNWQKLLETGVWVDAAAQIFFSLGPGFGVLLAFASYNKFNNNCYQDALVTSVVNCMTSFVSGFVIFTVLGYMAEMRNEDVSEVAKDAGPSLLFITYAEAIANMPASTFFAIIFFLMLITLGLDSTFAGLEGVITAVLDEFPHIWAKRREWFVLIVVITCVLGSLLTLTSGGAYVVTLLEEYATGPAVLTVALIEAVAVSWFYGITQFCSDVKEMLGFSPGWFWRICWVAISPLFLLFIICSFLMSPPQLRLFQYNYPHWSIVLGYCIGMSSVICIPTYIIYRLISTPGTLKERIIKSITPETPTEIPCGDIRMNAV

Structure (SMILES) | Ki [µM]
Cc1ccc2c(C)cc(NC(=N)N)nc2c1 [Compound 4006A, N-(4,7-dimethyl-2-quinolinyl)guanidine] | 8.79

Biological target: N-methyl-D-aspartate (NMDA) receptor channel complex
Assay: Binding at native NMDA receptor channels
Design: species or system rat
Settings: Table 8
Experimental: NMDA Receptor Channels: The methods to determine binding affinity at native N-methyl-D-aspartate (NMDA) receptor channels are described in Wong E. H. et al. (1988), the disclosure of which is hereby incorporated by reference in its entirety into this application.
as §2

Structure (SMILES) | Ki [µM]
CCc1ccc2nc(NC(=N)N)cc(C)c2c1 [Compound 4002A, N-(6-ethyl-4-methyl-2-quinolinyl)guanidine] | 12.8

Biological target: T3, human NPFF2 receptor (Homo sapiens, UniProt Q9Y5X5)
T3 construct: one of these, B089, was determined to be a full length clone with no point mutations; expressed in transfected cells; host or cells: not given
Assay: Functional assay (agonist potency, intrinsic activity) at cloned human NPFF2 receptor
Assay type: cell-based
Settings: Table 6, intrinsic activity

T3 sequence (Q9Y5X5 103-522): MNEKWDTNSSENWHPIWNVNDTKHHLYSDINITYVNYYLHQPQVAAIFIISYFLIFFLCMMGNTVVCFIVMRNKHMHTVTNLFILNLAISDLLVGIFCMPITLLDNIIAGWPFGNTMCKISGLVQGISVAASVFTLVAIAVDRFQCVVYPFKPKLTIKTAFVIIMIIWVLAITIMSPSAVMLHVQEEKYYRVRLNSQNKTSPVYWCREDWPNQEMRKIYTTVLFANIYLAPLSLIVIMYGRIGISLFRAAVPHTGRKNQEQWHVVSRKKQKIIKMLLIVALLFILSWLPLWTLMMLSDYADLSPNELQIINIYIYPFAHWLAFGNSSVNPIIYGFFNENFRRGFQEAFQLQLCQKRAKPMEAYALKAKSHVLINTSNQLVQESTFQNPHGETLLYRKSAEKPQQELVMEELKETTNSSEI

Structure (SMILES) | hNPFF2 IA [% NPFF]
Cc1nc(NC(=N)N)nc2cc(-c3ccccc3)ccc12 [Compound 1023A, N-(4-methyl-7-phenyl-2-quinazolinyl)guanidine] | 43
CCc1ccc2nc(NC(=N)N)cc(C)c2c1 [Compound 4002A, N-(6-ethyl-4-methyl-2-quinolinyl)guanidine] | 69
CCCCCc1ccc2nc(NC(=N)N)cc(C)c2c1 [Compound 5002A, N-(4-methyl-6-pentyl-2-quinolinyl)guanidine] | 75
CCCCCCc1ccc2nc(NC(=N)N)cc(C)c2c1 [Compound 5003A, N-(6-hexyl-4-methyl-2-quinolinyl)guanidine] | 45

Biological target: T4, rat NPFF2 receptor (Rattus norvegicus, UniProt Q9EQD2)
T4 construct: The full-length NPFF2 was amplified from rat spinal cord cDNA; expressed in transfected cells; host or cells: not given
Assay: Functional assay (agonist potency, intrinsic activity) at cloned rat NPFF2 receptor
Assay type: cell-based
Settings: Table 7, intrinsic activity

T4 sequence (Q9EQD2 whole entry): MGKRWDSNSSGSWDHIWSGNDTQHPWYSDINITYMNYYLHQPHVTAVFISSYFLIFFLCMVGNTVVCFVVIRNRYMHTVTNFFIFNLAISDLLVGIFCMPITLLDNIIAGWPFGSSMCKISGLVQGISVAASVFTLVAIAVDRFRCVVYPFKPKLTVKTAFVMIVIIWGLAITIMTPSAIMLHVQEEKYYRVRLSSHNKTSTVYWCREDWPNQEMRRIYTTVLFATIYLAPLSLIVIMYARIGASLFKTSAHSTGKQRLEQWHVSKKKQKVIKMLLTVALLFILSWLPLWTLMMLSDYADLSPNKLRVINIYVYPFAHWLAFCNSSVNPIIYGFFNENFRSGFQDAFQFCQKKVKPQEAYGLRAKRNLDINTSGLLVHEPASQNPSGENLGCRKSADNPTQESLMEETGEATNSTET

Structure (SMILES) | rNPFF2 IA [% NPFF]
Cc1nc(NC(=N)N)nc2cc(-c3ccccc3)ccc12 [Compound 1023A, N-(4-methyl-7-phenyl-2-quinazolinyl)guanidine] | 35
CCc1ccc2nc(NC(=N)N)cc(C)c2c1 [Compound 4002A, N-(6-ethyl-4-methyl-2-quinolinyl)guanidine] | 84
Cc1ccc2c(C)cc(NC(=N)N)nc2c1 [Compound 4006A, N-(4,7-dimethyl-2-quinolinyl)guanidine] | 32
CCCCCc1ccc2nc(NC(=N)N)cc(C)c2c1 [Compound 5002A, N-(4-methyl-6-pentyl-2-quinolinyl)guanidine] | 90
CCCCCCc1ccc2nc(NC(=N)N)cc(C)c2c1 [Compound 5003A, N-(6-hexyl-4-methyl-2-quinolinyl)guanidine] | 57

Biological target: T5, human α2C adrenergic receptor (Homo sapiens, UniProt P18825)
T5 construct: host or cells: LM(tk-) cells, line L-α2C
T5 sequence (P18825 1-462): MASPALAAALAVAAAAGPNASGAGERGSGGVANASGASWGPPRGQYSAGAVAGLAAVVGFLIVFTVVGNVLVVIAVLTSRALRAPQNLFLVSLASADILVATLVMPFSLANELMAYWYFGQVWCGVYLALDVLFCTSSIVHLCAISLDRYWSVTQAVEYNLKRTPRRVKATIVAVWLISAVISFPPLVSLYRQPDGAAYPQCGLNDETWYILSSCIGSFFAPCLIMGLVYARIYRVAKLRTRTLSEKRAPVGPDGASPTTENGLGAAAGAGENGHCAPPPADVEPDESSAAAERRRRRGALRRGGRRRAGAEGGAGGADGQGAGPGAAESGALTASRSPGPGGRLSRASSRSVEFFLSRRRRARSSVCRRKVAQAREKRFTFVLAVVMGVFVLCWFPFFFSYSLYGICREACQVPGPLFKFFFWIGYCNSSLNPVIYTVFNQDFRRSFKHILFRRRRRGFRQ
Assay: Binding at human α2C adrenergic receptor
Settings: Table 8; read-out: hα2C Ki
Text: as §1, §2

Structure (SMILES) | Ki [µM]
CCc1ccc2nc(NC(=N)N)cc(C)c2c1 [Compound 4002A, N-(6-ethyl-4-methyl-2-quinolinyl)guanidine] | 1.4

Biological target: T6, human α2A adrenergic receptor (Homo sapiens, UniProt P08913)
T6 construct: host or cells: LM(tk-) cells, line L-α2A
T6 sequence (P08913 1-465): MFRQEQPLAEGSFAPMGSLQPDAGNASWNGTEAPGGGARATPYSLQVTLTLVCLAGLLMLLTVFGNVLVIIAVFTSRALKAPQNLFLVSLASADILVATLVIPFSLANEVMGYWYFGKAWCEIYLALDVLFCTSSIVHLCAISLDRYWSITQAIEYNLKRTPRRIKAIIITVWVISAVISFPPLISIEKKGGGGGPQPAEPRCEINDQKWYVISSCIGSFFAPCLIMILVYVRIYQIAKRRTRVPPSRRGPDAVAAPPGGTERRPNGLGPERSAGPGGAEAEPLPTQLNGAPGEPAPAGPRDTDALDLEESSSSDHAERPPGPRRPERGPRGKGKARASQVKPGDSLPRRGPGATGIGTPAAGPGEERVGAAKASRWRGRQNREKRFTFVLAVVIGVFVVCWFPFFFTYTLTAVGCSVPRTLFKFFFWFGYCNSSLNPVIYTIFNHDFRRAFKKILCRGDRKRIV
Assay: Binding at human α2A adrenergic receptor
Settings: Table 8; read-out: hα2A Ki
Text: as §1, §2

Structure (SMILES) | Ki [µM]
CCc1ccc2nc(NC(=N)N)cc(C)c2c1 [Compound 4002A, N-(6-ethyl-4-methyl-2-quinolinyl)guanidine] | 0.267

Biological target: T7, rat NPFF1 receptor (Rattus norvegicus, UniProt Q9EP86)
T7 construct: expressed in transfected cells; host or cells: not given
Assay: Functional assay (agonist potency, intrinsic activity) at cloned rat NPFF1 receptor
Assay type: cell-based
Settings: Table 7, intrinsic activity

T7 sequence (Q9EP86 whole entry): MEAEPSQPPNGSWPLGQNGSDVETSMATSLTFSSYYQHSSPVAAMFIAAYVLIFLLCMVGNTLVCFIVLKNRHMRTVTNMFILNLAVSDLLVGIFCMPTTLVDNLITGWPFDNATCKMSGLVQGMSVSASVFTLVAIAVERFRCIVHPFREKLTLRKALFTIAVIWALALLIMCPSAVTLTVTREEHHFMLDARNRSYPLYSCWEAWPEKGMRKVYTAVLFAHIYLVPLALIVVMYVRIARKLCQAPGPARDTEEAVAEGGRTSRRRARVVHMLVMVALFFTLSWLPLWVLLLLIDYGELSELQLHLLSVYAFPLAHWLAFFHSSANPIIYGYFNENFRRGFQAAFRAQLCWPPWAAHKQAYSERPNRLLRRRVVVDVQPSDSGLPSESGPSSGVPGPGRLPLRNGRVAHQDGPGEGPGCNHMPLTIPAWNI

Structure (SMILES) | rNPFF1 IA [% NPFF]
CCCCCc1ccc2nc(NC(=N)N)cc(C)c2c1 [Compound 5002A, N-(4-methyl-6-pentyl-2-quinolinyl)guanidine] | 41
CCCCCCc1ccc2nc(NC(=N)N)cc(C)c2c1 [Compound 5003A, N-(6-hexyl-4-methyl-2-quinolinyl)guanidine] | 27

Tested on: distension induced contractions of the rat bladder
Assay: Distension-induced rhythmic contraction (DIRC) model, micturition reflex in anesthetized rats
Assay type: in vivo
Settings: 3 mg/kg, i.v.
Text: This model is widely considered to be predictive for the actions of drugs to treat human urge incontinence (also refered to as detrusor instability or unstable bladder). Examples of drugs that are active in this model which also are used therapeutically in humans include oxybutynin and baclofen (Morikawa et al, 1992); imipramine and nortriptyline (Pietra et al, 1990); and nifedipine and terodiline (Guarneri et al, 1993).
Female Sprague Dawley rats weighing approximately 300 g were anesthetized with subcutaneous urethane (1.2 g/kg). The trachea was cannulated with PE240 tubing to provide a clear airway throughout the experiment. A midline abdominal incision was made and the left and right ureters were isolated. The ureters were ligated distally (to prevent escape of fluids from the bladder) and cannulated proximally with PE10 tubing. The incision was closed using 4-0 silk sutures, leaving the PE10 lines routed to the exterior for the elimination of urine. The bladder was canulated via the transurethral route using PE50 tubing inserted 2.5 cm beyond the urethral opening. This cannula was secured to the tail using tape and connected to a pressure transducer. To prevent leakage from the bladder, the cannula was tied tightly to the exterior urethral opening using 4-0 silk.
To initiate the micturition reflex, the bladder was first emptied by applying pressure to the lower abdomen, and then filled with normal saline in 100 μl increments (maximum=2 ml) until spontaneous bladder contractions occurred (typically 20-40 mmHg at a rate of one contraction every 2 to 3 minutes. Once a regular rhythm was established, vehicle (saline) or test compounds were administered i.v. to examine their effects on bladder activity. The effect of a compound which inhibited the micturition reflex was expressed as its “disappearance time”, defined as the time between successive bladder contractions in the presence of the test compound minus the time between contractions before compound administration.

Structure (SMILES) | inhibition of distention induced contractions of the rat bladder
Cc1ccc2c(C)cc(NC(=N)N)nc2c1 [Compound 4006A, N-(4,7-dimethyl-2-quinolinyl)guanidine] | complete inhibition

Same assay, conditions: i.v. administration, anesthetized rat (figure legends)

Structure (SMILES) | time for which inhibition of bladder activity persisted [min]
Cc1ccc2c(C)cc(NC(=N)N)nc2c1 [Compound 4006A, N-(4,7-dimethyl-2-quinolinyl)guanidine] | 12

Biological target: T8, norepinephrine (NE) transporter (Rattus norvegicus, UniProt Q63380)
T8 construct: evaluated at native, tissue-derived transporters; from tissue
Assay: Binding at native norepinephrine transporter (NE uptake)
Settings: Table 8
Experimental: as §3, §2

T8 sequence (Q63380 1-617): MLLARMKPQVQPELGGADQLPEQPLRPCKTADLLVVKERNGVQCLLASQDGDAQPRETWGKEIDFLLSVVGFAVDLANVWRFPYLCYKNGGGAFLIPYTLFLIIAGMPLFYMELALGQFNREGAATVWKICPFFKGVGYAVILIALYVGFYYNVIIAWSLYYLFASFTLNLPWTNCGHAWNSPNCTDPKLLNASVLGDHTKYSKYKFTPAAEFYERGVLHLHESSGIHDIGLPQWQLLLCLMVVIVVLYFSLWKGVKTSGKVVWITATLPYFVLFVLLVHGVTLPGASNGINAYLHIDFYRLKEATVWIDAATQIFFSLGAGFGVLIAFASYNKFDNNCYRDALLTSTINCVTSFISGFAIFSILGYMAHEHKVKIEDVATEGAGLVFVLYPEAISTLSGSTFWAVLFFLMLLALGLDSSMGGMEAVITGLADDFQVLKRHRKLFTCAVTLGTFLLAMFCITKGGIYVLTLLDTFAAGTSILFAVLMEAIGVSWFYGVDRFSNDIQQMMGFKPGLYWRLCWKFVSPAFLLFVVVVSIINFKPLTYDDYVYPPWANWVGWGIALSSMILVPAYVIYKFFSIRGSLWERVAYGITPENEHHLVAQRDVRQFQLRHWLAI

Structure (SMILES) | Ki [µM]
Cc1ccc2c(C)cc(NC(=N)N)nc2c1 [Compound 4006A, N-(4,7-dimethyl-2-quinolinyl)guanidine] | 12.4
